Data reported in patent US20220274947A1, “NOVEL HETEROARYL-TRIAZOLE COMPOUNDS AS PESTICIDES” (Bayer Aktiengesellschaft, priority 2019, published 2022).

Tests used:
Assay type in all cases: in vivo
Ctenocephalides felis [1] = experiment: Ctenocephalides felis oral test (CTECFE Oral); conditions: 48 h, read-out: activity (mortality)
In short: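 Percent mortality was recorded 2 days after roughly 20 adult Ctenocephalides felis fed on treated cattle blood. The blood was warmed to 37 °C beneath a parafilm membrane, with the fleas kept at room temperature. Compound was dissolved in DMSO and diluted into the blood to test concentration.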

Nezara viridula = Nezara viridula spray test; conditions: in Hordeum vulgare, 96 h, barley plants, larvae, after 4 days; for mortality at 500 g/ha: application rate 500 g/ha; for mortality at 100 g/ha: application rate 100 g/ha
Method: Nezara viridula—Spray Test Solvent: 78.0 parts by weight of acetone • • 1.5 parts by weight of dimethylformamide Emulsifier: alkylarylpolyglycol ether
(§1) To produce a suitable preparation of active compound, 1 part by weight of active compound is mixed with the stated amount of solvent, and the concentrate is diluted with water, containing an emulsifier concentration of 1000 ppm, to the desired concentration. Further test concentrations are prepared by dilution with emulsifier containing water.
Barley plants (Hordeum vulgare) infested with larvae of the southern green stink bug (Nezara viridula) are sprayed with a test solution containing the desired concentration of the active ingredient.
After 4 days mortality in % is determined. 100% means all the stink bugs have been killed; 0% means none of the stink bugs have been killed.

Diabrotica balteata = Diabrotica balteata spray test; conditions: 168 h, wheat seeds, larvae, after 7 days, read-out: activity (efficacy: 100% means all seedlings have grown up like in the untreated, uninfected control); for pest or weed control at 32 µg/disc, 100 g/ha: application rate 100 g/ha (=32 μg/well); for pest or weed control at 160 µg/disc, 500 g/ha: application rate 500 g/ha (=160 μg/well)
In short: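 Efficacy (%) was scored 7 days after spraying, with 100% meaning growth like the untreated, uninfected control and 0% meaning no seedling grew. Spray solutions of compound in acetone/DMF with emulsifier-containing water went onto 1-day-germinated wheat seeds, and each unit was then infested with 10-20 banded cucumber beetle larvae.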

Rhipicephalus microplus [2] = experiment: Rhipicephalus (Boophilus) microplus injection test (BOOPMI Inj); conditions: 168 h, injection into adult engorged female ticks, egg deposition after 7 days, read-out: activity (efficacy: 100% means all eggs are infertile); for pest or weed control at 0.004 mg: application rate 4 μg/tick; for pest or weed control at 0.02 mg: application rate 20 μg/tick
In short: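 Compound in DMSO, 1 μL, injected abdominally into five adult engorged females, which were then held in a climate chamber. Read-out is egg fertility, scored from deposition at 7 days, with unclear eggs followed to hatching (~42 days); 0% means all eggs fertile, 100% all infertile.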

[3] = tested on: Musca domestica strain WHO—N; experiment: Musca domestica test (MUSCDO surface treatment & contact assay); conditions: exposure 30 minutes, 24 hours after contact, read-out: efficacy (mortality); for mortality at 20 mg/m2: surface concentration 20 mg/m^2, glazed tile; for mortality at 4 mg/m2: surface concentration 4 mg/m^2, glazed tile
In short: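 Compound dissolved in acetone (2 mg/ml) with 2000 ppm rapeseed oil methyl ester and pipetted onto glazed tile; after acetone evaporation, adult flies exposed to dried surface for 30 minutes. Mortality (%) scored 24 hours after contact.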

Myzus persicae [4] = experiment: Myzus persicae oral test; conditions: 120 h, read-out: activity (mortality)
In short: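 Percent mortality was recorded at day 5, where 0% means no aphids killed. Compound prepared from an acetone concentrate diluted in water and combined with IPL41 medium containing sugar was offered to mixed-stage green peach aphids, which sucked it through a parafilm seal.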

Rhipicephalus microplus [5] = experiment: Rhipicephalus (Boophilus) microplus in-vitro contact test, larval cattle tick, strain Parkhurst (BOOPMI Cont); conditions: application rate 5 μg/cm^2 (=500 g/ha), tick larvae, after 48 hours, read-out: activity (efficacy: 100% means all larvae are dead or moribund)
In short: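 After 48 h at 27° C. and 85% humidity, percent dead or moribund larvae was scored from negative geotactic behaviour. Larvae (20-50, Parkhurst strain, synthetic pyrethroid-resistant) were exposed in tubes coated with compound from acetone, 900 ppm corresponding to 5 μg/cm^2.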

Spodoptera frugiperda = Spodoptera frugiperda spray test; conditions: in Zea mays, 168 h, read-out: activity (mortality)
In short: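 Percent kill of fall armyworm caterpillars was assessed 7 days after infesting dried, treated maize leaf sections. Treatment was a spray of compound in acetone/dimethylformamide, diluted with water containing emulsifier at 1000 ppm.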

Rhipicephalus sanguineus = Rhipicephalus sanguineus in-vitro contact test, adult brown dog ticks (RHIPSA Cont); conditions: 48 h, after 48 hours, read-out: activity (efficacy: 100% means all ticks are dead or moribund); for pest or weed control at 1 µg/cm2, 100 g/ha: application rate 1 μg/cm^2 (=100 g/ha); for pest or weed control at 5 µg/cm2, 500 g/ha: application rate 5 μg/cm^2 (=500 g/ha)
In short: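 Mortality of adult R. sanguineus was judged 48 h after contact with acetone-applied residues on glass tube walls. Ticks that stayed immotile or moved without coordination when heated to 45–50 °C (max 5 min) counted as dead or moribund.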

[6] = tested on: Aedes aegypti strain MONHEIM; experiment: Aedes aegypti test (AEDSAE surface treatment & contact assay); conditions: surface concentration 20 mg/m^2, glazed tile, exposure 30 minutes, 24 hours after contact, read-out: efficacy (mortality)
In short: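 Compound dissolved in acetone (2 mg/ml) with 2000 ppm rapeseed oil methyl ester, pipetted onto glazed tile and dried. Adult mosquitoes exposed on the surface for 30 min; percent mortality scored 24 h after contact.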

Myzus persicae [7] = experiment: Myzus persicae spray test; conditions: in Brassica rapa, foliar, 120 h, read-out: activity (mortality), application rate 100 g/ha, spray, Chinese cabbage leaf disks, after 5 days
Method: as §1, with “Myzus persicae—Spray Test Solvent: 78.0 parts by weight acetone • 1.5 parts by weight dimethylformamide Emulsifier: alkylarylpolyglycol ether To” for “To”, “solvents” for “solvent,”, “and” for “and the concentrate”
Chinese cabbage (Brassica pekinensis) leaf disks infected with all instars of the green peach aphid (Myzus persicae), are sprayed with a preparation of the active ingredient of the desired concentration.
After 5 days mortality in % is determined. 100% means all aphids have been killed and 0% means none of the aphids have been killed.

Ctenocephalides felis [8] = experiment: Ctenocephalides felis in-vitro contact test, adult cat flea (CTECFE Cont); conditions: application rate 5 μg/cm^2 (=500 g/ha), adult cat fleas, after 48 hours, read-out: activity (efficacy: 100% means all fleas are dead or moribund)
Method: Ctenocephalides felis—In-Vitro Contact Tests Adult Cat Flea (CTECFE Cont)
9 mg compound is solved in 1 mL acetone and diluted with acetone to the desired concentration. 250 μL of the test solution is filled in 25 mL glass test tubes and homogeneously distributed on the inner walls by rotation and tilting on a shaking device (2 h at 30 rpm). With a compound concentration of 900 ppm, an inner surface of 44.7 cm^2 and a homogeneous distribution, a dose of 5 μg/cm^2 is achieved.
After the solvent has evaporated, each test tube is filled with 5-10 adult cat fleas (Ctenocephalides felis), closed with a perforated lid and incubated in a lying position at room temperature and relative humidity. After 48 hours efficacy is determined. The fleas are patted on the ground of the tubes and are incubated on a heating plate at 45-50° C. for at most 5 minutes. Immotile or uncoordinated moving fleas, which are not able to escape the heat by climbing upwards, are marked as dead or moribund.
An efficacy of 100% means all fleas are dead or moribund; 0% means no fleas are dead or moribund.

Compound | mortality at 100 ppm (Ctenocephalides felis [1]) | mortality at 500 g/ha (Nezara viridula) | pest or weed control at 32 µg/disc, 100 g/ha (Diabrotica balteata) | pest or weed control at 160 µg/disc, 500 g/ha (Diabrotica balteata) | pest or weed control at 0.004 mg (Rhipicephalus microplus [2]) | pest or weed control at 0.02 mg (Rhipicephalus microplus [2]) | mortality at 20 mg/m2 [3] | mortality at 4 ppm (Myzus persicae [4]) | pest or weed control at 5 µg/cm2 (Rhipicephalus microplus [5]) | mortality at 100 g/ha (Spodoptera frugiperda) | mortality at 500 g/ha (Spodoptera frugiperda) | mortality at 100 g/ha (Nezara viridula) | pest or weed control at 1 µg/cm2, 100 g/ha (Rhipicephalus sanguineus) | pest or weed control at 5 µg/cm2, 500 g/ha (Rhipicephalus sanguineus) | mortality at 20 mg/m2 [6] | mortality at 4 mg/m2 [3] | mortality at 100 g/ha (Myzus persicae [7]) | pest or weed control at 5 µg/cm2 (Ctenocephalides felis [8])
COc1nc([C@H](C)NC(=O)c2cc(C(F)(F)F)cc(C(F)(F)F)c2)n(-c2ccc(C#N)cn2)n1 [I-11] | 100% | 100% | 100% | 100% | 100% | 100% | 80 to 100% | 100% | 100% | 100% | 100% | – | – | – | – | – | – | –
CC(C)c1nc([C@H](C)NC(=O)c2cc(Cl)nc(C(F)(F)F)c2)n(-c2ccc(C#N)cn2)n1 [I-28] | 100% | – | 100% | – | 100% | 100% | 80 to 100% | 90% | 100% | 100% | – | 90% | 100% | 100% | – | – | – | –
C[C@H](NC(=O)c1cc(C(F)(F)F)cc(C(F)(F)F)c1)c1nc(C(C)(C)C)nn1-c1ccc(C#N)cn1 [I-37] | – | – | 100% | – | 100% | 100% | 80 to 100% | – | 100% | 100% | – | 100% | 100% | 100% | 80 to 100% | 80 to 100% | 90% | –
COc1nc([C@H](C)NC(=O)c2cc(OC(F)F)cc(C(F)F)c2)n(-c2ccc(C#N)cn2)n1 [I-65] | – | 100% | 100% | – | – | – | – | 100% | 100% | 100% | – | – | – | 80% | – | – | 90% | –
C[C@H](NC(=O)c1cc(Cl)cc(OC(F)(F)F)c1)c1ncnn1-c1ncc(Br)s1 [II-15, N-{(1S)-1-[1-(5-bromo-1,3-thiazol-2-yl)-1H-1,2,4-triazol-5-yl]ethyl}-3-chloro-5-(trifluoromethoxy)benzamide] | 100% | 90% | 100% | 100% | 100% | 100% | 80 to 100% | – | 100% | – | 100% | – | – | – | – | – | – | 80%
C[C@H](NC(=O)c1cc(Cl)cc(OC(F)(F)F)c1)c1ncnn1-c1ncc(I)s1 [II-21] | 100% | 90% | 100% | 100% | 100% | 100% | 80 to 100% | – | 100% | – | 100% | – | – | – | – | 80 to 100% | – | 80%
C[C@H](NC(=O)c1cc(Cl)cc(C(F)(F)F)c1)c1ncnn1-c1ccc(C(=O)N(CC(F)(F)F)C2CC2)cn1 [II-70] | – | 90% | 100% | 100% | 100% | 100% | – | – | 100% | 100% | 100% | – | 100% | 100% | – | – | – | 100%
C[C@H](NC(=O)c1cc(Cl)cc(C(F)(F)F)c1)c1ncnn1-c1ccc(C(=O)N(C)CC#N)cn1 [II-72] | – | 100% | 100% | 100% | 100% | 100% | – | 100% | 100% | 100% | 100% | – | 100% | 100% | – | – | – | 100%
COCCN(C)C(=O)c1ccc(-n2nc(C)nc2[C@H](C)NC(=O)c2cc(C(F)(F)F)cc(C(F)(F)F)c2)nc1 [II-98] | 100% | – | – | – | 100% | – | – | 100% | 100% | 83% | – | – | 100% | 100% | – | – | 90% | –
Cc1nc([C@H](C)NC(=O)c2cc(Br)cc(OC(F)(F)F)c2)n(-c2cc(C#N)ccn2)n1 [II-106] | 100% | – | 100% | – | 100% | – | – | 100% | 100% | 100% | – | – | 100% | 100% | – | – | 90% | 90%
